From patent publication US11447534B2, “Peptide complex with immunodulatory and anti-inflammatory function” (NATIONAL INSTITUTE OF IMMUNOLOGY, priority 2018, dated 2022)

Key:
[1] = tested on: RAW264.7 macrophages; test: qPCR of Cd74, Cd36 in serum starved macrophages; format: cell-based, murine; details: unstimulated RAW264.7 macrophages, with respect to basal
[2] = tested on: macrophages; test: Uptake of fluorescent CD36 ligands by macrophages (FACS); format: cell-based, murine; details: macrophages pre-treated half an hour, ligand 1 hour
Protocol: Briefly, 50 μl of 100 μM Abeta was pH adjusted to pH 9 with 5 microlitre of 1 M NaHCO3, followed by addition of 4 microlitre of the H2O solubilized reactive dye. Incubation at room temperature (˜22° C.) was performed for 15 min followed by immediate addition of 55 microlitre of the labeling reaction mixture onto a spin column packed with a 425 microlitre slurry of Biogel P-6 resin for removal of unincorporated dye. The resulting eluent (pH 7.4) was stored for up to 2 days at 4° C. or used immediately for cellular uptake experiments. Both ligands were exposed after pre-treatment of cells with A-O complex for half an hour. The ligands were exposed to cell cultures for 1 hour after which cells were either quenched with trypan blue (0.2%) or given acid wash.

[3] = tested on: ConA activated macrophages; test: qPCR in ConA activated macrophages; format: cell-based, murine
Protocol: To determine the immunomodulatory effect of A-O complex, serum starved macrophages were exposed to the complex. Macrophages (1×10^6 cells) were serum starved for 30 min after which cells were exposed to A-O complex. After 1 hour, cells were washed with 1×PBS (pH 7.4) and harvested using cell dissociation solution. Then the cells were suspended in ice cold staining buffer (100 μl) and centrifuged at 1000 rpm for 5 min at 4° C. The cells were resuspended in 100 μl ice cold staining buffer for 10 min at 2-8° C. and pellet resuspended in 50 μl staining media. To this 2 μl of Fc block or anti-mouse CD16/CD32 was added for 10 mins and washed with staining buffer. The cells were resuspended in 50 μl of staining buffer and incubated with fluorescent-tagged CD36 antibody (e-biosciences) for 25-30 min on ice. The excess stain was removed by washing and pelleting down using staining buffer thrice by spinning and removal of staining buffer. The cell suspension was fixed 1:1 ratio (staining buffer:fixative) and analysed within 48 h in ARIA3 DIVA software version 6.1. Further, expression of MHC-II, and CD-36, was also determined in the microglial cells via qPCR. For this RNA extraction was performed using RNA extraction kit from Qiagen according to the manufacturer's instruction. cDNA synthesis was performed using cDNA synthesis kit from Qiagen. […] Following amplification, fold changes in gene expression versus β-actin (reference) analysis was determined using the 2^ΔΔCT(Livak) method. To determine the immunomodulatory effect of A-O complex on activated macrophages, macrophages were activated with Concanavalin-A (Con-A), for 30 minutes and the changes in mRNA levels of Cd36, Lrp1, Cd11b, Cd74 and Apoe were analyzed by qPCR.

[4] = tested on: EOC20 microglial cells; test: F-actin confocal microscopy of unstimulated EOC20 microglia; format: cell-based; details: serum starved, 1 hour
Method: To determine the morphological changes in microglia upon exposure to A-O complex, F-actin confocal microscopy was performed. For that poly-L-lysine coated coverslips were placed in the 24 well culture dishes containing 1 ml of complete media and cells were seeded over the cover slips. […] Post treatment, the cell culture media was then removed and cells were washed thrice with 1×PBS (pH 7.4). Cells were fixed in 4% PFA for 10 min at room temperature and then washed thrice with 1×PBS (pH 7.4). Cells were then exposed to Phalloidin-actin (F-actin) antibody for 20 min in the dark. Thereafter, cells were washed twice with 1×PBS (pH7.4) and mounted using DAPI Fluormount (Invitrogen, Carlsbad, Calif., USA). Cells were imaged on a Zeiss LSM510 META laser-scanning confocal microscope. A PlanApochromat 63/1.4 oil-immersion DIC M27 objective (Zeiss) was used for image acquisition. [Concentration of Phalloidin-actin antibody: 300 U of Phalloidin-actin (Invitrogen, Carlsbad, USA) was dissolved in 1.5 ml methanol to yield a concentration of 200 U/ml or 6.6 μM. 1 U of phalloidin is equal to 5 μl of methanolic stock].

[5] = tested on: carrageenan induced paw edema; test: Carrageenan induced paw inflammation in mice; format: in vivo, mouse
Protocol: The effect of A-O complex was tested under in vivo conditions. Carrageenan, an inflammation inducing agent was injected into the hind foot pad of mouse to induce acute inflammation. The edema attains peak at around 3 hours post carrageenan challenge. This is a convenient model to assess the anti-inflammatory potency of test drugs to reduce or prevent the development of swelling. The protocol followed herein is as per Morris (2003) [Morris C J, 2003, Carrageenan induced paw edema in rat and mouse. In: Winyard P. G., Willoughby D. A. (eds) Inflammation Protocols. Methods in Molecular Biology, Vol 225. Humana Press. Pp 115-121].
Preparation of carrageenan: To prepare 0.5% of carrageenan solution, 50 mg of lamda-carrageenan ([…], Sigma Chemical Co., St. Louis, Mo., USA) was slowly added onto a small beaker containing 10 ml of normal saline. The powder was allowed to swell for some time and then slightly heated (not boiled) to dissolve the carrageenan. The solution was stirred during the heating. Once dissolved, the solution was cooled and aliquoted and stored at 4 degree Celsius.
Method: For experiment, the mice were acclimatized in cages under standard light and temperature settings with access to food and water ad libitum. Mice were acclimatized for 1 week in respective cages to minimize stress. At the day of experiment, mice were placed in a temporary animal restraint and 50 microlitre of carrageenan solution was administered by intraplantar injection to the right hind paw of each mouse. The left paw served as control and was administered 50 microlitre of normal saline.
To determine the efficacy of A-O complex different concentrations of complex viz. 5, 20 and 50 microgram per 100 g body weight of mice were administered intraperitoneally 1 hour before carrageenan challenge. Ibuprofen (100 mg/kg, Sigma Chemical Co., St. Louis, Mo., USA) served as positive control for the experiment. Paw size was measured by wrapping a piece of cotton thread round the paw of each […] and recording the length of the thread, the paw circumference, by use of a metric ruler. Paws were measured immediately before and at specified time points after carrageenan injection. Inhibitory activity was calculated at 1-5 h after carrageenan injection with the following formula: % Inhibition=[(Ct−C0)control−(Ct−C0)treated]/(Ct−C0)control×100, where Ct is paw size after carrageenan injection and C0 is paw size before carrageenan injection.

[6] = tested on: carrageenan challenged mice; test: Carrageenan induced nitrite production in serum (Griess reaction); format: in vivo, mouse; details: 50 microgram of A-O complex, 3rd hour post carrageenan challenge
Protocol: Measurement of nitric oxide in serum: Nitric oxide concentration in serum of carrageenan challenged mice with or without treatment was determined by the Griess reaction as an indicator of nitric oxide production as previously reported by Prado (2002) [Prado W A, Schiavon V F, Cunha F Q. Dual effect of local application of nitric oxide donors in a model of incision pain in rats. Eur J Pharmacol. 2002; 441:57-65]. Briefly, 100 microlitre of sera and 100 microlitre of Griess reagent (mix of 2% sulphanilamide in 5% phosphoric acid and 0.2% N(1-naphthyl) ethylenediamine hydrochloride) were mixed in 96-well ELISA plate and Absorbance was read at 550 nm. The concentration of nitrite was determined using a standard curve of sodium nitrite.

Substance: A-O complex: peptide complex of 100 μM Abeta1-42 (SEQ ID NO: 1) and 3 ng Glu-OC (SEQ ID NO: 2), incubated at 37° C. for 4 hours
- increase in mRNA level of Cd36 [1]: 8 fold
- increase in mRNA level of Cd74 (MHC-II) [1]: 3 fold
- uptake of mutant Abeta42 (mutant Aβ) [2]: facilitates the uptake
- uptake of oxidized-lipoprotein (oxLDL) [2]: facilitates the uptake
- mRNA level of Cd11b [3]: significantly reversed
- mRNA level of Cd36 [3]: significantly induced
- mRNA level of Cd74 [3]: significantly reversed
- microglia morphology (F-actin) [4]: rounded morphology with projections indicative of activation
- reduction in paw edema ([5]; 5 microgram per 100 g body weight i.p. 1 hour before carrageenan, first value (1 hour)): 25%
- reduction in paw edema ([5]; 5 microgram per 100 g body weight i.p., second value (3rd hour)): 48%
- reduction in paw edema ([5]; 5 microgram per 100 g body weight i.p., third value (5th hour)): 58%
- reduction in paw edema ([5]; 20 microgram per 100 g body weight i.p., first value (1 hour)): 30%
- reduction in paw edema ([5]; 20 microgram per 100 g body weight i.p., second value (3rd hour)): 60%
- reduction in paw edema ([5]; 20 microgram per 100 g body weight i.p., third value (5th hour)): 65%
- reduction in paw edema ([5]; 50 microgram per 100 g body weight i.p., first value (1 hour)): 30%
- reduction in paw edema ([5]; 50 microgram per 100 g body weight i.p., second value (3rd hour)): 57%
- reduction in paw edema ([5]; 50 microgram per 100 g body weight i.p., third value (5th hour)): 65%
- serum nitrite level [6]: maximal efficiency to reduce serum nitrite level
